The target in the test is PRMT5/MEP50 protein complex (Homo sapiens (Human), UniProt O14744). The test can be described thus: PRMT5 biochemical assay (3H-SAM methylation of H4(1-21) peptide, filter plate scintillation). Particulars: 10 nM PRMT5/MEP50 complex, 200 nM H4(1-21) peptide, 1 uM SAM, 25 minute incubation at room temperature. In a few lines: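 Human PRMT5/MEP50 complex (10 nM) methylating H4(1-21) peptide (200 nM) with 3H/unlabelled SAM (1 uM final) in pH 8.5 Tris buffer, 25 min at room temperature. Stopped with TCA, 3H-peptide captured on filter plates and scintillation-counted. IC50 from 4-parameter fit.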
Sequence of PRMT5/MEP50 protein complex (O14744 other isoform, or with tags, fused parts or gaps): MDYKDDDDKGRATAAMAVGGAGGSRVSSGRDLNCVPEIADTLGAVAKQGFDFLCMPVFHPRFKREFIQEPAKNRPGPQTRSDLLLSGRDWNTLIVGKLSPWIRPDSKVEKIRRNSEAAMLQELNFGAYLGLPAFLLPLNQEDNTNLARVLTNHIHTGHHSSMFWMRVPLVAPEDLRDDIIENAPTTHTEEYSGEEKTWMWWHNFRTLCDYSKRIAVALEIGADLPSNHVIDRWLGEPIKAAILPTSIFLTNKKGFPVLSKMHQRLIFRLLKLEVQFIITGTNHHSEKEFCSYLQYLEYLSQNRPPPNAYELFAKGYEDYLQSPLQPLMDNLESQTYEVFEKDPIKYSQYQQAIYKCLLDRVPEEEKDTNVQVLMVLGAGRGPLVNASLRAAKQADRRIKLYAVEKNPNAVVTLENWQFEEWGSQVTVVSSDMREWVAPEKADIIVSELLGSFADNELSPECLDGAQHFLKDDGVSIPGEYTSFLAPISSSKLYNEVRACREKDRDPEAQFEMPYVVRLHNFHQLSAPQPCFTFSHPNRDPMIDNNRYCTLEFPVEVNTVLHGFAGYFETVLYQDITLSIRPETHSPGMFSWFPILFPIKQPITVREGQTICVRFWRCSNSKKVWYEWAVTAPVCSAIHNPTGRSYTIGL
Sequence of PRMT5/MEP50 protein complex (Q9BQA1 whole entry partner): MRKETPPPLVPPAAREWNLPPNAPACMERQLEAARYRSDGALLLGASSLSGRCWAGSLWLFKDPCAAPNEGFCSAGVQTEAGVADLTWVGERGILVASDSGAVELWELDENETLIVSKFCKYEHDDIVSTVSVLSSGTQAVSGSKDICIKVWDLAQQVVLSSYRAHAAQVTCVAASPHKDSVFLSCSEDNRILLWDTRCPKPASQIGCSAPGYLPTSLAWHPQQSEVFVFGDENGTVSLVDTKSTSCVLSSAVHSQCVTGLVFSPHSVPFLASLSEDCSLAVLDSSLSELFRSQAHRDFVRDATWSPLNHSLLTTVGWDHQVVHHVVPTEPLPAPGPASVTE
Compound `Cc1ncnc2c1ccn2[C@@H]1C[C@H](Oc2cccc3c2CN(C)CC3)[C@@H](O)[C@H]1O` [Example 83, (1S,2S,3S,5R)-3-((2-methyl-1,2,3,4-tetrahydroisoquinolin-8-yl)oxy)-5-(4-methyl-7H-pyrrolo[2,3-d]pyrimidin-7-yl)cyclopentane-1,2-diol] displayed an IC50 of 0.02 µM. This counts as double-digit nanomolar.
The compound `Cc1ncc(O[C@H]2C[C@@H](n3ccc4c(C)ncnc43)[C@H](O)[C@@H]2O)c2c1CCNC2` [Example 96, (1S,2S,3S,5R)-3-((1-methyl-5,6,7,8-tetrahydro-2,6-naphthyridin-4-yl)oxy)-5-(4-methyl-7H-pyrrolo[2,3-d]pyrimidin-7-yl)cyclopentane-1,2-diol] displayed an IC50 of 0.019 µM.
As for `Cc1ncnc2c1ccn2[C@@H]1C[C@H](Oc2cc(C(C)(C)O)cc3c2CNCC3)[C@@H](O)[C@H]1O` [Example 97, (1S,2S,3S,5R)-3-((6-(2-hydroxypropan-2-yl)-1,2,3,4-tetrahydroisoquinolin-8-yl)oxy)-5-(4-methyl-7H-pyrrolo[2,3-d]pyrimidin-7-yl)cyclopentane-1,2-diol], the figure is 0.065 µM; as for `Nc1ncnc2c1c(F)cn2[C@@H]1C[C@H](Oc2cccc3c2CNC3)[C@@H](O)[C@H]1O` [Example 110, (1S,2S,3R,5S)-3-(4-amino-5-fluoro-7H-pyrrolo[2,3-d]pyrimidin-7-yl)-5-(2,3-dihydro-1H-isoindol-4-yloxy)cyclopentane-1,2-diol], 0.008 µM.
For `CC(F)(F)c1cc2c(c(O[C@H]3C[C@@H](n4cc(F)c5c(N)ncnc54)[C@H](O)[C@@H]3O)c1)CNCC2` [Example 112, (1S,2S,3R,5S)-3-(4-amino-5-fluoro-7H-pyrrolo[2,3-d]pyrimidin-7-yl)-5-((6-(1,1-difluoroethyl)-1,2,3,4-tetrahydroisoquinolin-8-yl)oxy)cyclopentane-1,2-diol] the value was 0.004 µM.
As for `Cc1cc(O[C@H]2C[C@@H](n3cc(F)c4c(N)ncnc43)[C@H](O)[C@@H]2O)c2c(c1F)CCNC2` [Example 113, (1S,2S,3R,5S)-3-(4-amino-5-fluoro-7H-pyrrolo[2,3-d]pyrimidin-7-yl)-5-((5-fluoro-6-methyl-1,2,3,4-tetahydroisoquinolin-8-yl)oxy)cyclopentane-1,2-diol], the figure is 0.001 µM; as for `CN1Cc2cccc(O[C@H]3C[C@@H](n4cc(F)c5c(N)ncnc54)[C@H](O)[C@@H]3O)c2C1` [Example 115, (1S,2S,3R,5S)-3-(4-amino-5-fluoro-7H-pyrrolo[2,3-d]pyrimidin-7-yl)-5-[(2-methyl-2,3-dihydro-1H-isoindol-4-yl)oxy]cyclopentane-1,2-diol], 0.147 µM; as for `CN1CCc2c(cccc2O[C@H]2C[C@@H](n3cc(F)c4c(N)ncnc43)[C@H](O)[C@@H]2O)C1` [Example 116, (1S,2S,3R,5S)-3-(4-amino-5-fluoro-7H-pyrrolo[2,3-d]pyrimidin-7-yl)-5-((2-methyl-1,2,3,4-tetrahydroisoquinolin-5-yl)oxy)cyclopentane-1,2-diol], 0.257 µM.
The compound `Cc1cc2c(c(O[C@H]3C[C@@H](n4cc(F)c5cnc(C)nc54)[C@H](O)[C@@H]3O)c1)CNCC2` [Example 127, (1S,2S,3R,5S)-3-(5-fluoro-2-methyl-7H-pyrrolo[2,3-d]pyrimidin-7-yl)-5-((6-methyl-1,2,3,4-tetrahydroisoquinolin-8-yl)oxy)cyclopentane-1,2-diol] displayed an IC50 of 0.009 µM.
As for `Cc1ncnc2c1ccn2[C@@H]1C[C@H](Oc2ccc(F)cc2CO)[C@@H](O)[C@H]1O` [Example 135, (1S,2S,3S,5R)-3-(4-fluoro-2-(hydroxymethyl)phenoxy)-5-(4-methyl-7H-pyrrolo[2,3-d]pyrimidin-7-yl)cyclopentane-1,2-diol], the figure is 10.2 µM; as for `Cc1ncnc2c1ccn2[C@@H]1C[C@H](Oc2ccc(F)cc2O)[C@@H](O)[C@H]1O` [Example 136, (1S,2S,3S,5R)-3-(4-fluoro-2-hydroxyphenoxy)-5-(4-methyl-7H-pyrrolo[2,3-d]pyrimidin-7-yl)cyclopentane-1,2-diol], 11.1 µM.
The compound `Cc1ncnc2c1ccn2[C@@H]1C[C@H](Oc2ccc(F)cc2[C@@H](C)N)[C@@H](O)[C@H]1O` [Example 137, (1S,2S,3S,5R)-3-(2-((R)-1-aminoethyl)-4-fluorophenoxy)-5-(4-methyl-7H-pyrrolo[2,3-d]pyrimidin-7-yl)cyclopentane-1,2-diol] came in with an IC50 of 0.123 µM. This IC50 lies about 90-fold lower than the previous one.
As for `Cc1ncnc2c1ccn2[C@@H]1C[C@H](Oc2cccc3c2[C@@H](N)CC3)[C@@H](O)[C@H]1O` [Example 141, (1S,2S,3S,5R)-3-(((S)-3-amino-2,3-dihydro-1H-inden-4-yl)oxy)-5-(4-methyl-7H-pyrrolo[2,3-d]pyrimidin-7-yl)cyclopentane-1,2-diol], the figure is 3.93 µM.
As for `Cc1ncnc2c1ccn2[C@@H]1C[C@H](Oc2cccc3c2[C@H](N)CC3)[C@@H](O)[C@H]1O` [Example 142, (1S,2S,3S,5R)-3-(((R)-3-amino-2,3-dihydro-1H-inden-4-yl)oxy)-5-(4-methyl-7H-pyrrolo[2,3-d]pyrimidin-7-yl)cyclopentane-1,2-diol], the figure is 0.011 µM; as for `Cc1ncnc2c1ccn2[C@@H]1C[C@H](Oc2cccc(C(F)(F)F)c2CN)[C@@H](O)[C@H]1O` [Example 144, (1S,2S,3S,5R)-3-(2-(aminomethyl)-3-(trifluoromethyl)phenoxy)-5-(4-methyl-7H-pyrrolo[2,3-d]pyrimidin-7-yl)cyclopentane-1,2-diol], 0.077 µM.
For `Cc1ncnc2c1ccn2[C@@H]1C[C@H](Oc2ccc(F)c(F)c2CN)[C@@H](O)[C@H]1O` [Example 145, (1S,2S,3S,5R)-3-(2-(aminomethyl)-3,4-difluorophenoxy)-5-(4-methyl-7H-pyrrolo[2,3-d]pyrimidin-7-yl)cyclopentane-1,2-diol] the value was 0.011 µM.
With `Cc1ncnc2c1ccn2[C@@H]1C[C@H](Oc2cc(Cl)c(Cl)cc2CN)[C@@H](O)[C@H]1O` [Example 147, (1S,2S,3S,5R)-3-(2-(aminomethyl)-4,5-dichlorophenoxy)-5-(4-methyl-7H-pyrrolo[2,3-d]pyrimidin-7-yl)cyclopentane-1,2-diol], the IC50 was found to be 0.024 µM. This IC50 is about 2.2-fold higher than that of the compound before.
For the compound `Cc1ncnc2c1ccn2[C@@H]1C[C@H](Oc2ccc(Cl)cc2C(O)CN)[C@@H](O)[C@H]1O` (stereo partly drawn) [Example 149, (1S,2S,3S,5R)-3-(2-(2-amino-1-hydroxyethyl)-4-chlorophenoxy)-5-(4-methyl-7H-pyrrolo[2,3-d]pyrimidin-7-yl)cyclopentane-1,2-diol], the concentration for half-maximal inhibition (IC50) stood at 0.069 µM.
For `Cc1ncnc2c1ccn2[C@@H]1C[C@H](Oc2ccc(Cl)c(Cl)c2CN)[C@@H](O)[C@H]1O` [Example 150, (1S,2S,3S,5R)-3-(2-(aminomethyl)-3,4-dichlorophenoxy)-5-(4-methyl-7H-pyrrolo[2,3-d]pyrimidin-7-yl)cyclopentane-1,2-diol] the value was 0.071 µM; for `Cc1ncnc2c1ccn2[C@@H]1C[C@H](Oc2cc(Cl)c(Cl)cc2OCCN)[C@@H](O)[C@H]1O` [Example 151, (1S,2S,3S,5R)-3-(2-(2-aminoethoxy)-4,5-dichlorophenoxy)-5-(4-methyl-7H-pyrrolo[2,3-d]pyrimidin-7-yl)cyclopentane-1,2-diol], 0.078 µM; for `Cc1ncnc2c1ccn2[C@@H]1C[C@H](Oc2cc(F)c(F)cc2OCCN)[C@@H](O)[C@H]1O` [Example 152, (1S,2S,3S,5R)-3-(2-(2-aminoethoxy)-4,5-difluorophenoxy)-5-(4-methyl-7H-pyrrolo[2,3-d]pyrimidin-7-yl)cyclopentane-1,2-diol], 0.008 µM.
As for `Cc1ncnc2c1ccn2[C@@H]1C[C@H](Oc2ccc(Cl)cc2OCCN)[C@@H](O)[C@H]1O` [Example 153, (1S,2S,3S,5R)-3-(2-(2-aminoethoxy)-4-chlorophenoxy)-5-(4-methyl-7H-pyrrolo[2,3-d]pyrimidin-7-yl)cyclopentane-1,2-diol], the figure is 0.005 µM; as for `Cc1cc(O[C@H]2C[C@@H](n3ccc4c(C)ncnc43)[C@H](O)[C@@H]2O)c2c(c1F)CCNC2` [Example 155, (1S,2S,3S,5R)-3-((5-fluoro-6-methyl-1,2,3,4-tetrahydroisoquinolin-8-yl)oxy)-5-(4-methyl-7H-pyrrolo[2,3-d]pyrimidin-7-yl)cyclopentane-1,2-diol], 0.002 µM.
As for `Cc1ncnc2c1ccn2[C@@H]1C[C@H](Oc2ncnc3c2CNCC3)[C@@H](O)[C@H]1O` [Example 156, (1S,2S,3R,5S)-3-(4-methyl-7H-pyrrolo[2,3-d]pyrimidin-7-yl)-5-((5,6,7,8-tetrahydropyrido[4,3-d]pyrimidin-4-yl)oxy)cyclopentane-1,2-diol], the figure is 0.107 µM; as for `Cc1ncnc2c1ccn2[C@@H]1C[C@H](Oc2nccc3c2CNCC3)[C@@H](O)[C@H]1O` [Example 157, (1S,2S,3R,5S)-3-(4-methyl-7H-pyrrolo[2,3-d]pyrimidin-7-yl)-5-((5,6,7,8-tetrahydro-2,7-naphthyridin-1-yl)oxy)cyclopentane-1,2-diol], 0.004 µM.
Regarding `Cc1nccc(O[C@@H]2C[C@H](Oc3cccc4c3CNCC4)[C@@H](O)[C@H]2O)n1` [Example 158, (1S,2R,3R,5S)-3-((2-methylpyrimidin-4-yl)oxy)-5-((1,2,3,4-tetrahydroisoquinolin-8-yl)oxy)cyclopentane-1,2-diol], the IC50 is over 200 µM.
As for `Cc1ncnc2c1ccn2[C@@H]1C[C@H]([C@@H](O)c2ccc(Cl)c(F)c2)[C@@H](O)[C@H]1O` [Example 161, (1S,2R,3R,5R)-3-((R)-(4-chloro-3-fluorophenyl)(hydroxy)methyl)-5-(4-methyl-7H-pyrrolo[2,3-d]pyrimidin-7-yl)cyclopentane-1,2-diol], the figure is 0.201 µM; as for `Nc1ncnc2c1c(F)cn2[C@@H]1C[C@H](Oc2cccc3ccncc23)[C@@H](O)[C@H]1O` [Example 162], 0.042 µM.

These data come from patent US10709709B2, “Substituted carbonucleoside derivatives useful as anticancer agents” (Pfizer Inc., priority 2016, dated 2020).
